Experimental data from PMC10499049, “Characterization of norbelladine synthase and noroxomaritidine/norcraugsodine reductase reveals a novel catalytic route for the biosynthesis of Amaryllidaceae alkaloids including the Alzheimer’s drug galanthamine” (Frontiers in Plant Science, 2023).

Legend:
LaNR = target: T1, LaNR (Leucojum aestivum, UniProt Z9Z857OJM6); assay: HPLC-MS/MS of norbelladine formed, with and without NADPH; format: biochemical; conditions: […] NADPH; […] tyramine, […],4-DHBA; […] sodium citrate pH […]; […] C; […] h
T1 construct: full-length 269 aa (29 kDa), N-terminal MBP fusion (pMAL-c2x), tag kept, E. coli Rosetta (DE3) pLysS
T1 sequence (Z9Z857OJM6 1-271): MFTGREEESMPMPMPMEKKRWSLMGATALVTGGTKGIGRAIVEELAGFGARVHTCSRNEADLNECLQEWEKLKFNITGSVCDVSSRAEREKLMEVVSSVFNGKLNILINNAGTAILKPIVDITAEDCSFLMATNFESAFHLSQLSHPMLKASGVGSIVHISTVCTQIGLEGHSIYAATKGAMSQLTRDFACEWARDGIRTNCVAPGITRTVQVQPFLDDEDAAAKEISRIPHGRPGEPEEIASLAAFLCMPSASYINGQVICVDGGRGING

NpNR = target: T2, NpNR (Narcissus papyraceus, UniProt A0A346TLF8); assay: as above; format: biochemical; conditions: 1 mM NADPH; 10 uM tyramine, 300 uM 3,4-DHBA; 100 mM sodium citrate pH 6.0; 35 C; 2 h
T2 construct: gene NorRed1; full-length 269 aa (29 kDa), N-terminal MBP fusion (pMAL-c2x), tag kept, E. coli Rosetta (DE3) pLysS
T2 sequence (A0A346TLF8 1-269): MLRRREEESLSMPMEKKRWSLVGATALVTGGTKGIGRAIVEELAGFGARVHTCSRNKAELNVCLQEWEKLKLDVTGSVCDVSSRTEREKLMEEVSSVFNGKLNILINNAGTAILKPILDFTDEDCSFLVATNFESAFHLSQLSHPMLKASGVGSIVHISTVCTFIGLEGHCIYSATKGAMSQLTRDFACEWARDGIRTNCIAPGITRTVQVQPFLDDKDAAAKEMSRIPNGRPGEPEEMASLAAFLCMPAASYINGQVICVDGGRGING

[1] = target: N. papyraceus noroxomaritidine/norcraugsodine reductase, yeast two-hybrid fusions (Narcissus papyraceus)
N. papyraceus noroxomaritidine/norcraugsodine reductase, yeast two-hybrid fusions (Narcissus papyraceus), sequence (A0A346TLF8 entry or part of it): as the sequence (A0A346TLF8 1-269) above

Row | Compound | HPLC-MS/MS of norbelladine formed, with and without NADPH (LaNR) | HPLC-MS/MS of norbelladine formed, with and without NADPH (NpNR) | norbelladine produced by yeast cultures co-expressing NpNBS and NpNR, fed with tyramine and 3,4-DHBA (HPLC-MS/MS, peak area relative to papaverine); none detected with either enzyme alone (relative peak area ratio) [1]
1 | NC(=O)C1=CN([C@@H]2O[C@H](COP(=O)(O)OP(=O)(O)OC[C@H]3O[C@@H](n4cnc5c(N)ncnc54)[C@H](OP(=O)(O)O)[C@@H]3O)[C@@H](O)[C@H]2O)C=CC1 [NADPH] | NR assays lacking NADPH resulted in no norbelladine production | NR assays lacking NADPH resulted in no norbelladine production | 
2 | N. papyraceus norbelladine synthase, yeast two-hybrid fusions (enzyme) |  |  | 0.22
